For 33 molecules, melting point results are on record in US6949542B2, “Dihydro-benzo[b][1,4]diazepin-2-one derivatives” (Hoffman-La Roche Inc., priority 2002, dated 2005).

A word on the melting point: it is the temperature, or range, at which the solid turns liquid.

Each structure is given as a SMILES string.

Take `Cc1cncc(-c2cccc(C3=Nc4cc(Cl)c(C)cc4NC(=O)C3)c2)n1` [Example 132, 7-Chloro-8-methyl-4-[3-(6-methyl-pyrazin-2-yl)-phenyl]-1,3-dihydro-benzo[b][1,4]diazepin-2-one]: the melting point stood at 254 °C.
Next, `Cc1cc(-c2cccc(C3=Nc4cc(C)c(Cl)cc4NC(=O)C3)c2)c(C)cn1` [Example 134, 8-Chloro-4-[3-(2,5-dimethyl-pyridin-4-yl)-phenyl]-7-methyl-1,3-dihydro-benzo[b][1,4]diazepin-2-one]: 208 °C; `Cc1cc(-c2cccc(C3=Nc4cc(C)c(C(F)(F)F)cc4NC(=O)C3)c2)c(C)cn1` [Example 135, 4-[3-(2,5-Dimethyl-pyridin-4-yl)-phenyl]-7-methyl-8-trifluoromethyl-1,3-dihydro benzo[b][1,4]diazepin-2-one]: 211 °C; `Cc1cc(-c2cccc(C3=Nc4cc(Cl)c(C(F)(F)F)cc4NC(=O)C3)c2)c(C)cn1` [Example 136, 7-Chloro-4-[3-(2,5-dimethyl-pyridin-4-yl)-phenyl]-8-trifluoromethyl-1,3-dihydro benzo[b][1,4]diazepin-2-one]: 214 °C.
The molecule `Cc1cc(-c2cccc(C3=Nc4cc(Cl)c(Cl)cc4NC(=O)C3)c2)c(C)cn1` [Example 137, 7,8-Dichloro-4-[3-(2,5-dimethyl-pyridin-4-yl)-phenyl]-1,3-dihydro-benzo[b][1,4]diazepin-2-one] yielded a melting point of 208 °C.
To `CCOc1cc2c(cc1C(F)(F)F)NC(=O)CC(c1cccc(-c3cc(C)ncc3C)c1)=N2` [Example 139, 4-[3-(2,5-Dimethyl-pyridin-4-yl)-phenyl]-7-ethoxy-8-trifluoromethyl-1,3-dihydro-benzo[b][1,4]diazepin-2-one] belongs 189 °C; to `Cc1cc2c(cc1Cl)NC(=O)CC(c1cccc(-c3ccnc(C)c3C)c1)=N2` [Example 140, 8-Chloro-4-[3-(2,3-dimethyl-pyridin-4-yl)-phenyl]-7-methyl-1,3-dihydro-benzo[b][1,4]diazepin-2-one], 224 °C.
Next, `Cc1cc2c(cc1C(F)(F)F)NC(=O)CC(c1cccc(-c3ccnc(C)c3C)c1)=N2` [Example 141, 4-[3-(2,3-Dimethyl-pyridin-4-yl)-phenyl]-7-methyl-8-trifluoromethyl-1,3-dihydro benzo[b][1,4]diazepin-2-one]: 222 °C; `Cc1nccc(-c2cccc(C3=Nc4ccc(C(F)(F)F)cc4NC(=O)C3)c2)c1C` [Example 142, 4-[3-(2,3-Dimethyl-pyridin-4-yl)-phenyl]-8-trifluoromethyl-1,3-dihydro benzo[b][1,4]diazepin-2-one]: 200 °C; `Cc1nccc(-c2cccc(C3=Nc4cc(Cl)c(C(F)(F)F)cc4NC(=O)C3)c2)c1C` [Example 143, 7-Chloro-4-[3-(2,3-dimethyl-pyridin-4-yl)-phenyl]-8-trifluoromethyl-1,3-dihydro benzo[b][1,4]diazepin-2-one]: 212 °C.
Next, `Cc1nccc(-c2cccc(C3=Nc4cc(Cl)c(Cl)cc4NC(=O)C3)c2)c1C` [Example 144, 7,8-Dichloro-4-[3-(2,3-dimethyl-pyridin-4-yl)-phenyl]-1,3-dihydro-benzo[b][1,4]diazepin-2-one]: 219 °C; `Cc1nccc(-c2cccc(C3=Nc4cc(OCC(F)(F)F)c(C(F)(F)F)cc4NC(=O)C3)c2)c1C` [Example 145, 4-[3-(2,3-Dimethyl-pyridin-4-yl)-phenyl]-7-(2,2,2-trifluoro-ethoxy)-8-trifluoromethyl-1,3-dihydro-benzo[b][1,4]diazepin-2-one]: 222 °C.
Turning to `CCOc1cc2c(cc1C(F)(F)F)NC(=O)CC(c1cccc(-c3ccnc(C)c3C)c1)=N2` [Example 146, 4-[3-(2,3-Dimethyl-pyridin-4-yl)-phenyl]-7-ethoxy-8-trifluoromethyl-1,3-dihydro-benzo[b][1,4]diazepin-2-one], the melting point is 217 °C.
Next, `CCc1cnc(C)cc1-c1cccc(C2=Nc3cc(C)c(C(F)(F)F)cc3NC(=O)C2)c1` [Example 148, 4-[3-(5-Ethyl-2-methyl-pyridin-4-yl)-phenyl]-7-methyl-8-trifluoromethyl-1,3-dihydro benzo[b][1,4]diazepin-2-one]: 182 °C; `CCc1cnc(C)cc1-c1cccc(C2=Nc3ccc(C(F)(F)F)cc3NC(=O)C2)c1` [Example 149, 4-[3-(5-Ethyl-2-methyl-pyridin-4-yl)-phenyl]-8-trifluoromethyl-1,3-dihydro benzo[b][1,4]diazepin-2-one]: 183 °C; `CCc1cnc(C)cc1-c1cccc(C2=Nc3cc(Cl)c(Cl)cc3NC(=O)C2)c1` [Example 150, 7,8-Dichloro-4-[3-(5-ethyl-2-methyl-pyridin-4-yl)-phenyl]-1,3-dihydro-benzo[b][1,4]diazepin-2-one]: 191 °C.
Consider `CCc1cnc(C)cc1-c1cccc(C2=Nc3cc(OCC(F)(F)F)c(C(F)(F)F)cc3NC(=O)C2)c1` [Example 151, 4-[3-(5-ethyl-2-methyl-pyridin-4-yl)-phenyl]-7-(2,2,2-trifluoro-ethoxy)-8-trifluoromethyl-1,3-dihydro-benzo[b][1,4]diazepin-2-one], for which the melting point was determined as 169 °C.
To `CCOc1cc2c(cc1C(F)(F)F)NC(=O)CC(c1cccc(-c3cc(C)ncc3CC)c1)=N2` [Example 152, 4-[3-(5-Ethyl-2-methyl-pyridin-4-yl)-phenyl]-7-ethoxy-8-trifluoromethyl-1,3-dihydro-benzo[b][1,4]diazepin-2-one] belongs 191 °C.
The molecule `CCc1cc(-c2cccc(C3=Nc4cc(C)c(Cl)cc4NC(=O)C3)c2)ccn1` [Example 153, 8-Chloro-4-[3-(2-ethyl-pyridin-4-yl)-phenyl]-7-methyl-1,3-dihydro-benzo[b][1,4]diazepin-2-one] came in with a melting point of 195 °C.
To `CCc1cc(-c2cccc(C3=Nc4ccc(C(F)(F)F)cc4NC(=O)C3)c2)ccn1` [Example 155, 4-[3-(2-Ethyl-pyridin-4-yl)-phenyl]-8-trifluoromethyl-1,3-dihydro benzo[b][1,4]diazepin-2-one] belongs 208 °C; to `CCc1cc(-c2cccc(C3=Nc4cc(Cl)c(C(F)(F)F)cc4NC(=O)C3)c2)ccn1` [Example 156, 7-Chloro-4-[3-(2-ethyl-pyridin-4-yl)-phenyl]-8-trifluoromethyl-1,3-dihydro benzo[b][1,4]diazepin-2-one], 217 °C; to `CCc1cc(-c2cccc(C3=Nc4cc(Cl)c(Cl)cc4NC(=O)C3)c2)ccn1` [Example 157, 7,8-Dichloro-4-[3-(2-ethyl-pyridin-4-yl)-phenyl]-1,3-dihydro-benzo[b][1,4]diazepin-2-one], 216 °C.
Next, `CCc1cc(-c2cccc(C3=Nc4cc(OCC(F)(F)F)c(C(F)(F)F)cc4NC(=O)C3)c2)ccn1` [Example 158, 4-[3-(2-Ethyl-pyridin-4-yl)-phenyl]-7-(2,2,2-trifluoro-ethoxy)-8-trifluoromethyl-1,3-dihydro-benzo[b][1,4]diazepin-2-one]: 232 °C; `CCOc1cc2c(cc1C(F)(F)F)NC(=O)CC(c1cccc(-c3ccnc(CC)c3)c1)=N2` [Example 159, 4-[3-(2-Ethyl-pyridin-4-yl)-phenyl]-7-ethoxy-8-trifluoromethyl-1,3-dihydro-benzo[b][1,4]diazepin-2-one]: 244 °C; `Cc1cc2c(cc1Cl)NC(=O)CC(c1cccc(-c3ccc(C4CC4)nc3)c1)=N2` [Example 161, 8-Chloro-4-[3-(6-cyclopropyl-pyridin-3-yl)-phenyl]-7-methyl-1,3-dihydro-benzo[b][1,4]diazepin-2-one]: 198 to 199 °C.
To `CCOc1ccc2c(c1)N=C(c1cccc(-c3cccnc3)c1)CC(=O)N2` [Example 162, 7-Ethoxy-4-(3-pyridin-3-yl-phenyl)-1,3-dihydro-benzo[b][1,4]diazepin-2-one] belongs 166 to 169 °C; to `CCOc1ccc2c(c1)N=C(c1cccc(-c3ccncc3)c1)CC(=O)N2` [Example 163, 7-Ethoxy-4-(3-pyridin-4-yl-phenyl)-1,3-dihydro-benzo[b][1,4]diazepin-2-one], 180 to 185 °C; to `O=C1CC(c2cccc(-c3ccccn3)c2)=Nc2ccc(C#Cc3ccccc3)cc2N1` [Example 164, 8-Phenylethynyl-4-(3-pyridin-2-yl-phenyl)-1,3-dihydro-benzo[b][1,4]diazepin-2-one], 242 °C.
The molecule `O=C1CC(c2cccc(-c3ccccn3)c2)=Nc2ccc(C#Cc3ccc(F)cc3)cc2N1` [Example 165, 8-(4-Fluoro-phenylethynyl)-4-(3-pyridin-2-yl-phenyl)-1,3-dihydro-benzo[b][1,4]diazepin-2-one] came in with a melting point of 249 °C.
The molecule `O=C1CC(c2cccc(-c3ccc(C4CC4)nc3)c2)=Nc2cc(OCC(F)(F)F)c(C(F)(F)F)cc2N1` [Example 166, 4-[3-(6-Cyclopropyl-pyridin-3-yl)-phenyl]-7-(2,2,2-trifluoro-ethoxy)-8-trifluoromethyl-1,3-dihydro-benzo[b][1,4]diazepin-2-one] had a melting point of 213 to 214 °C.
Next, `Cc1cc2c(cc1C(F)(F)F)NC(=O)CC(c1cccc(-c3ccc(C4CC4)nc3)c1)=N2` [Example 167, 4-[3-(6-Cyclopropyl-pyridin-3-yl)-phenyl]-7-methyl-8-trifluoromethyl-1,3-dihydro-benzo[b][1,4]diazepin-2-one]: 220 to 221 °C; `COc1ccc(-c2cccc(C3=Nc4cc(C)c(C(F)(F)F)cc4NC(=O)C3)c2)cn1` [Example 168, 4-[3-(6-Methoxy-pyridin-3-yl)-phenyl]-7-methyl-8-trifluoromethyl-1,3-dihydro-benzo[b][1,4]diazepin-2-one]: 219 to 224 °C; `COc1ccc(-c2cccc(C3=Nc4cc(OCC(F)(F)F)ccc4NC(=O)C3)c2)cn1` [Example 169, 4-[3-(6-Methoxy-pyridin-3-yl)-phenyl]-7-(2,2,2-trifluoro-ethoxy)-1,3-dihydro-benzo[b][1,4]diazepin-2-one]: 186 °C.
